Measured values published in patent publication US6340696B1, “Viral treatment” (The Procter & Gamble Company, priority 1999, dated 2002).
Like-named read-outs stand apart in the source and are kept apart here. Marks after values point to notes of the source that are not given here.

How the values were obtained:
[1] = system: BVDV; experiment: BVDV antiviral assay in MDBK cells, XTT readout of inhibition of virus-induced cell killing; type: cell-based; settings: for Comments: activity against BVDV / toxicity; for TI: TC50/IC50
Description: (§1) Madin-Darby bovine kidney (MDBK) cells were passaged in T-75 flasks for use in the assay. On the day preceding the assay, the cells were trypsinized, pelleted, counted and resuspended at 6×10^4/well in tissue culture medium. Cells were added to 96 well flat bottom plates in a volume of 100 μl per well.
A pretitered aliquot of virus is removed from the freezer (−80° C.) and allowed to thaw slowly to room temperature in a biological safety cabinet. The virus is diluted into tissue culture medium such that the amount of virus added to each well in a volume of 100 μl will be the amount determined to give complete cell killing at 6 days post-infection.
(§2) Interferon was purchased from PBL Biomedical Laboratories (New Brunswick, N.J.) and was in PBS solutions. On the day of testing, the drug stock is diluted in the medium to the desired high concentration and then further diluted in the medium in half log series.
(§3) The day following plating of cells, plates are removed from the incubator, and medium is removed and discarded. Drug dilutions are added to appropriate wells of the microtiter plate in a volume of 100 μl per well. Each dilution is set up in triplicate. Complete medium or complete medium containing appropriately diluted virus is added to appropriate wells in a volume of 100 μl per well.
(§4) The format of the test plate has been standardized. Each plate contains cell control wells (cell only), virus control wells (cells plus virus), drug toxicity control wells (cells plus drug only), drug colorimetric control wells (drug only) as well as experimental wells (drugs plus cells plus virus).
(§5) The cell viability was evaluated by a dye (XTT) uptake procedure. XTT-tetraolium is metabolized by the mitochontrial enzymes of metabolically active cells to a soluble formazan product, allowing the rapid quantitative analysis of the inhibition of virus-induced cell killing by antiviral test substances.
(§6) XTT solution was prepared daily as a stock of 1 mg/ml in PBS. Phenazine methosulfate (PMS) solution was prepared at 15 mg/ml in PVBS and stored in the dark at −20° C. STT/PMS stock was prepared immediately before use by diluting PMS 1:100 into PBS and adding 40 μl per ml of XTT solution. Fifty microliters of XTT/PMS was added to each well of the plate (each well had been loaded with 100 μl fresh medium) and the plate was reincubated for 4 hours at 37° C.
(§7) Adhesive plate sealers were used in place of the lids, the sealed plate was inverted several times to mix the soluble formazan product and the plate was read spectrophotometrically at 450 nm (XTT) with a Molecular Devices Vmax plate reader.
(§8) The efficacy and toxicity of inteferons are analyzed using a computer program (developed by Southern Research Institute) which calculates % CPE reduction, % cell viability, IC25,50 & 95, TC5,50 & 95 and other indices.
(§9) Combination effects are analyzed statistically by Prichard and Shipman method. Effects of the drug combination on efficacy and toxicity are calculated based on the activity or toxicity of the two compounds when tested alone. The expected additive inhibition rate of virus production or the expected additive cell viability rate subtracted from the experimentally determined inhibition rate or viability rate at each combination concentration results in a positive value (synergy), a negative value (antagonism), or zero (addivity).

[2] = system: Madin-Darby bovine kidney (MDBK) cells; experiment: Cytotoxicity in MDBK cells (drug toxicity control wells, XTT)
Description: as §1, §2, §3, §4, §5, §6, §7, §8, §9

[3] = Compound conc 0.020, INF-αA conc 0
[4] = Compound conc 0.020, Ribavirin conc 0
[5] = Compound conc 0.063, INF-αA conc 0
[6] = Compound conc 0.063, Ribavirin conc 0
[7] = Compound conc 0.200, INF-αA conc 0
[8] = Compound conc 0.200, Ribavirin conc 0
[9] = Compound conc 0.633, INF-αA conc 0
[10] = Compound conc 0.633, Ribavirin conc 0
[11] = Compound conc 2.00, INF-αA conc 0
[12] = Compound conc 2.00, Ribavirin conc 0

Molecule: NC(=O)c1ncn([C@@H]2O[C@H](CO)[C@@H](O)[C@H]2O)n1 [Ribavirin, 1-β-D-ribofuranosyl-1H-1,2,4-triazole-3carboxamide, reference compound]
- IC50 ([1]; Bovine viral diarrhea virus isolates and strains, MDBK): 0.66 µg/mL
- Antiviral Percentage Inhibition ([1]; Compound conc 0, Ribavirin conc 0.075): 0%
- Antiviral Percentage Inhibition ([1]; Compound conc 0, Ribavirin conc 0.238): 5.2%
- Antiviral Percentage Inhibition ([1]; Compound conc 0, Ribavirin conc 0.751): 5%
- Antiviral Percentage Inhibition ([1]; Compound conc 0, Ribavirin conc 2.373): 7.9%
- Antiviral Percentage Inhibition ([1]; Compound conc 0, Ribavirin conc 7.5): 43.7%
- Antiviral Percentage Inhibition ([1]; Ribavirin conc 0.075, INF-αA conc 0): 0%
- Antiviral Percentage Inhibition ([1]; Ribavirin conc 0.238, INF-αA conc 0): 5%
- Antiviral Percentage Inhibition ([1]; Ribavirin conc 0.751, INF-αA conc 0): 3%
- Antiviral Percentage Inhibition ([1]; Ribavirin conc 2.373, INF-αA conc 0): 31.5%
- Antiviral Percentage Inhibition ([1]; Ribavirin conc 7.500, INF-αA conc 0): 41.6%
- Comments [1]: Active/Toxic
- TC50 ([2]; MDBK cells, unit per footnote): 7.19* μg/ml

Molecule: INF-α I: human IFN-α species I
- IC50 ([1]; BVDV in MDBK cells): 26.80 U/ml
- TI [1]: >11.81
- Comments [1]: Active/Nontoxic
- TC50 [2]: >316.00 U/ml

Molecule: (5-Phenyl-1,2,4-thiadiazol)-3-yl thiourea [Compound]
- Antiviral Percentage Inhibition [1, 3]: 5.8%
- Antiviral Percentage Inhibition [1, 4]: 7.3%
- Antiviral Percentage Inhibition [1, 5]: 7%
- Antiviral Percentage Inhibition [1, 6]: 5%
- Antiviral Percentage Inhibition [1, 7]: 4%
- Antiviral Percentage Inhibition [1, 8]: 3.6%
- Antiviral Percentage Inhibition [1, 9]: 11.7%
- Antiviral Percentage Inhibition [1, 10]: 7.6%
- Antiviral Percentage Inhibition [1, 11]: 25.9%
- Antiviral Percentage Inhibition [1, 12]: 29.5%
- combination effect on activity against BVDV in vitro (words) ([1]; listed as (5-Phenyl -1,2,4-thiadiazol)-3-yl thiourea): acts synergistically with INF-αA
- combination effect on activity against BVDV in vitro (words) ([1]; listed as (5-Phenyl-1,2,4-thiadiazol)-3-yl thiourea): does not have antagonistic effect on activity of ribavirin
- Cytotoxicity Percentage [2, 3]: 0%
- Cytotoxicity Percentage [2, 4]: 16.3%
- Cytotoxicity Percentage [2, 5]: 5.8%
- Cytotoxicity Percentage [2, 6]: 6.7%
- Cytotoxicity Percentage [2, 7]: 8.3%
- Cytotoxicity Percentage [2, 8]: 6.2%
- Cytotoxicity Percentage [2, 9]: 13.5%
- Cytotoxicity Percentage [2, 10]: 16.9%
- Cytotoxicity Percentage [2, 11]: 10.3%
- Cytotoxicity Percentage [2, 12]: 18.8%
- combination effect on toxicity of ribavirin towards the cells ([2]; in vitro): imposes antagonistic effect on toxicity of ribavirin

B1: INF-α WA: human IFN-α species WA (protein, UniProt P05015 24-189, looked up)
Interferon alpha-16: CDLPQTHSLGNRRALILLAQMGRISHFSCLKDRYDFGFPQEVFDGNQFQKAQAISAFHEMIQQTFNLFSTKDSSAAWDETLLDKFYIELFQQLNDLEACVTQEVGVEEIALMNEDSILAVRKYFQRITLYLMGKKYSPCAWEVVRAEIMRSFSFSTNLQKGLRRKD
- IC50 ([1]; BVDV in MDBK cells): 6.75 U/ml
- TI [1]: >46.78
- Comments [1]: Active/Nontoxic
- TC50 [2]: >316.00 U/ml

B2: INF-α G: human IFN-α species G (protein, UniProt P01569 22-189, looked up)
Interferon alpha-5: LGCDLPQTHSLSNRRTLMIMAQMGRISPFSCLKDRHDFGFPQEEFDGNQFQKAQAISVLHEMIQQTFNLFSTKDSSATWDETLLDKFYTELYQQLNDLEACMMQEVGVEDTPLMNVDSILTVRKYFQRITLYLTEKKYSPCAWEVVRAEIMRSFSLSANLQERLRRKE
- IC50 ([1]; BVDV in MDBK cells): 23.60 U/ml
- TI [1]: >13.40
- Comments [1]: Active/Nontoxic
- TC50 [2]: >316.00 U/ml

B3: INF-α D: human IFN-α species D (protein, UniProt P01562 24-189, looked up)
Interferon alpha-1/13: CDLPETHSLDNRRTLMLLAQMSRISPSSCLMDRHDFGFPQEEFDGNQFQKAPAISVLHELIQQIFNLFTTKDSSAAWDEDLLDKFCTELYQQLNDLEACVMQEERVGETPLMNADSILAVKKYFRRITLYLTEKKYSPCAWEVVRAEIMRSLSLSTNLQERLRRKE
- IC50 ([1]; BVDV in MDBK cells): 11.60 U/ml
- TI [1]: >27.31
- Comments [1]: Active/Nontoxic
- TC50 [2]: >316.00 U/ml

B4: INF-α J1: human IFN-α species J1 (protein, UniProt P01567 24-189, looked up)
Interferon alpha-7: CDLPQTHSLRNRRALILLAQMGRISPFSCLKDRHEFRFPEEEFDGHQFQKTQAISVLHEMIQQTFNLFSTEDSSAAWEQSLLEKFSTELYQQLNDLEACVIQEVGVEETPLMNEDFILAVRKYFQRITLYLMEKKYSPCAWEVVRAEIMRSFSFSTNLKKGLRRKD
- IC50 ([1]; BVDV in MDBK cells): 10.60 U/ml
- TI [1]: >29.90
- Comments [1]: Active/Nontoxic
- TC50 [2]: >316.00 U/ml

B5: INF-α C: human IFN-α species C (protein, UniProt P01566 24-189, looked up)
Interferon alpha-10: CDLPQTHSLGNRRALILLGQMGRISPFSCLKDRHDFRIPQEEFDGNQFQKAQAISVLHEMIQQTFNLFSTEDSSAAWEQSLLEKFSTELYQQLNDLEACVIQEVGVEETPLMNEDSILAVRKYFQRITLYLIERKYSPCAWEVVRAEIMRSLSFSTNLQKRLRRKD
- IC50 ([1]; BVDV in MDBK cells): 9.12 U/ml
- TI [1]: >34.66
- Comments [1]: Active/Nontoxic
- TC50 [2]: >316.00 U/ml

B6: INF-α F: human IFN-α species F (protein, UniProt P01568 24-189, looked up)
Interferon alpha-21: CDLPQTHSLGNRRALILLAQMGRISPFSCLKDRHDFGFPQEEFDGNQFQKAQAISVLHEMIQQTFNLFSTKDSSATWEQSLLEKFSTELNQQLNDLEACVIQEVGVEETPLMNVDSILAVKKYFQRITLYLTEKKYSPCAWEVVRAEIMRSFSLSKIFQERLRRKE
- IC50 ([1]; BVDV in MDBK cells): 33.00 U/ml
- TI [1]: >9.57
- Comments [1]: Active/Nontoxic
- TC50 [2]: >316.00 U/ml

B7: INF-α K: human IFN-α species K (protein, UniProt P05013 21-189, looked up)
Interferon alpha-6: SLDCDLPQTHSLGHRRTMMLLAQMRRISLFSCLKDRHDFRFPQEEFDGNQFQKAEAISVLHEVIQQTFNLFSTKDSSVAWDERLLDKLYTELYQQLNDLEACVMQEVWVGGTPLMNEDSILAVRKYFQRITLYLTEKKYSPCAWEVVRAEIMRSFSSSRNLQERLRRKE
- IC50 ([1]; BVDV in MDBK cells): 24.80 U/ml
- TI [1]: >12.72
- Comments [1]: Active/Nontoxic
- TC50 [2]: >316.00 U/ml

B8: INF-α H2: human IFN-α species H2 (protein, UniProt P01570 24-189, looked up)
Interferon alpha-14: CNLSQTHSLNNRRTLMLMAQMRRISPFSCLKDRHDFEFPQEEFDGNQFQKAQAISVLHEMMQQTFNLFSTKNSSAAWDETLLEKFYIELFQQMNDLEACVIQEVGVEETPLMNEDSILAVKKYFQRITLYLMEKKYSPCAWEVVRAEIMRSLSFSTNLQKRLRRKD
- IC50 ([1]; BVDV in MDBK cells): 7.00 U/ml
- TI [1]: >45.12
- Comments [1]: Active/Nontoxic
- TC50 [2]: >316.00 U/ml
